Data: ChEMBL document CHEMBL2163253, “Identification and preliminary characterization of a potent, safe, and orally efficacious inhibitor of acyl-CoA:diacylglycerol acyltransferase 1” (J Med Chem, 2012)
Values belong to the compound of their own block, whether it stands above or below them. Calls of active or inactive are those of the source. The rule behind the calls is not given here.

Legend:
[1] = Stability in human liver microsomes assessed as parent compound remaining measured after 60 mins; type: ADME, Microsome; settings: read-out: Stability
[2] = Efflux ratio in human Caco2 cells at 0.5 uM at pH 7.4; type: ADME, cell-based; settings: Caco-2, pH 7.4
[3] = Terminal half life in rat at 5 mg/kg, po administered as single dose; type: ADME, organism-based; parameters: dose 5 mg/kg, route oral; settings: in vivo, read-out: beta t1/2 (converted)
Rattus norvegicus [4] = test: AUC in female rat dosed orally for 2 weeks assessed as terminal exposure; settings: in vivo, po, 336 h
[5] = AUC in mouse at 10 mg/kg, po administered as single dose; type: ADME, organism-based; parameters: dose 10 mg/kg, route oral; settings: plasma
[6] = Plasma clearance in rat at 5 mg/kg, iv administered as single dose; type: ADME, organism-based; parameters: dose 5 mg/kg, route intravenous
[7] = Plasma concentration in CD1 mouse postprandial hyperlipidemia model at 3 mg/kg, po administered as single dose 1 hr before oral corn oil bolus challenge and measured after 2 hrs; type: ADME, organism-based; parameters: dose 3 mg/kg, route oral
Mustela putorius furo = species: Mustela putorius furo; test: Toxicity in ferret assessed as induction of emesis; type: organism-based; settings: in vivo
[8] = Volume of distribution at steady state in rat at 5 mg/kg, iv administered as single dose; type: ADME, organism-based; parameters: dose 5 mg/kg, route intravenous; settings: in vivo, read-out: Vdss
[9] = target: T1, Diacylglycerol O-acyltransferase 1 (Mus musculus, UniProt Q9Z2A7); test: Inhibition of mouse DGAT1 using [1-14C]decanoyl-CoA substrate by phospholipid flash plate assay
T1 sequence (Q9Z2A7 whole entry): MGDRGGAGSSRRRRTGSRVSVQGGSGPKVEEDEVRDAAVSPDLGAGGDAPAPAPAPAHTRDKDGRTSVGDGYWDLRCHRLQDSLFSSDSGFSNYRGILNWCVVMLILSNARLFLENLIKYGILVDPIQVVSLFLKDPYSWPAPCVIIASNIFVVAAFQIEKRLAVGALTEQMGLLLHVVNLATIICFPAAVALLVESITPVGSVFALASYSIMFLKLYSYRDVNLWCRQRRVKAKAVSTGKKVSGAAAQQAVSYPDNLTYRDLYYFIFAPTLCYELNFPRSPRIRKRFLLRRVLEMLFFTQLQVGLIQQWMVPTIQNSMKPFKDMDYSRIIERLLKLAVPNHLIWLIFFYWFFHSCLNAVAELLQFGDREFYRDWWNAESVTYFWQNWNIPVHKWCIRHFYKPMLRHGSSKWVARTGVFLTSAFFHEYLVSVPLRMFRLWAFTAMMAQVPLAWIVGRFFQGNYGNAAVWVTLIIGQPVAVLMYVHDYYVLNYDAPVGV

[10] = Terminal half life in mouse at 10 mg/kg, po administered as single dose; type: ADME, organism-based; parameters: dose 10 mg/kg, route oral; settings: in vivo, read-out: beta t1/2 (converted)
[11] = target: T2, Diacylglycerol O-acyltransferase 1 (Homo sapiens, UniProt O75907); test: Inhibition of human DGAT1 expressed in human HeLa cells assessed as reduction in triglyceride synthesis; type: cell-based
T2 sequence (O75907 whole entry): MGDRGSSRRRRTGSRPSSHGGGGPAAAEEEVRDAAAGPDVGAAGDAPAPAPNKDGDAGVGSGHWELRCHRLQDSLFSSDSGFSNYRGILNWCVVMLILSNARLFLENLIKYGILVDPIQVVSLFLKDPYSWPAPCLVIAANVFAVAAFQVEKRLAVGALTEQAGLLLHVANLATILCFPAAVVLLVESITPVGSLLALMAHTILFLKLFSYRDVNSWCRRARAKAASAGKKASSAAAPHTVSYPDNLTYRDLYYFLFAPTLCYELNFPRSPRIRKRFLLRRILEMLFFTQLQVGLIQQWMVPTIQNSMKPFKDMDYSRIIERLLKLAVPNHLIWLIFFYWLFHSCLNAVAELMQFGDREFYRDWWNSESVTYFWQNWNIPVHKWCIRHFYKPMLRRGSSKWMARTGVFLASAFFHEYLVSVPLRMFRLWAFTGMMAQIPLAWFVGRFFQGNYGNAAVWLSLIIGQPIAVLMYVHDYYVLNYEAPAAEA

[12] = target: T3, Diacylglycerol O-acyltransferase 2 (Homo sapiens, UniProt Q96PD7); test: Inhibition of human recombinant DGAT2 expressed in insect cell membrane using [1-14C]decanoyl-CoA substrate by phospholipid flash plate assay
T3 sequence (Q96PD7 whole entry): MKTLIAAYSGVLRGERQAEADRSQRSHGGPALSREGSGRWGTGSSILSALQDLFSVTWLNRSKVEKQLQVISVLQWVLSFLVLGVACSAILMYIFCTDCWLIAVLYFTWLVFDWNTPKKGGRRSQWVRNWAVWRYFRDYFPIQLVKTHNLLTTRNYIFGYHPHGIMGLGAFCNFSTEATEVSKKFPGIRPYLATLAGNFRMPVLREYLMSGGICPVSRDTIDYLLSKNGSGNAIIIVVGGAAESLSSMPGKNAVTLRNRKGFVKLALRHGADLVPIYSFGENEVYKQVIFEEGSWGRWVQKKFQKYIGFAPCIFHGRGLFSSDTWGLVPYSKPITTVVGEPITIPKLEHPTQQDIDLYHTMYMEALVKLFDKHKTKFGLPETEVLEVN

Mus musculus [13] = test: Reduction in serum triglyceride level in CD1 mouse postprandial hyperlipidemia model at 3 mg/kg, po administered as single dose 1 hr before oral corn oil bolus challenge and measured after 2 hrs; type: functional; parameters: scale not given: the % may be the effect or the level left
[14] = Plasma concentration in CD1 mouse postprandial hyperlipidemia model at 0.03 mg/kg, po administered as single dose 1 hr before oral corn oil bolus challenge and measured after 2 hrs; type: ADME, organism-based; parameters: dose 0.03 mg/kg, route oral
[15] = Oral bioavailability in rat at 5 mg/kg administered as single dose; type: ADME, organism-based; settings: in vivo
[16] = Cmax in mouse at 10 mg/kg, po administered as single dose; type: ADME, organism-based; parameters: dose 10 mg/kg, route oral; settings: in vivo
[17] = Terminal half life in rat at 5 mg/kg, iv administered as single dose; type: ADME, organism-based; parameters: dose 5 mg/kg, route intravenous; settings: in vivo, read-out: beta t1/2 (converted)
Canis familiaris [18] = test: Toxicity in dog assessed as toxicity symptoms at terminal compound concentration dosed orally for 2 weeks; type: organism-based, Canis lupus familiaris; settings: in vivo, po, 336 h
Rattus norvegicus [19] = test: Toxicity in female rat assessed as toxicity symptoms at terminal compound concentration dosed orally for 2 weeks; type: organism-based; settings: in vivo, po, 336 h
Mus musculus [20] = test: Reduction in serum triglyceride level in overnight fasted DIO mouse model at 0.3 mg/kg, po administered as single dose 1 hr before and for 5 hrs after oral corn oil bolus challenge; type: functional, organism-based; parameters: dose 0.3 mg/kg
Mus musculus [21] = test: Reduction in serum triglyceride level in CD1 mouse postprandial hyperlipidemia model at 0.3 mg/kg, po administered as single dose 1 hr before oral corn oil bolus challenge and measured after 2 hrs; type: functional; parameters: scale not given: the % may be the effect or the level left
[22] = target: T2, Diacylglycerol O-acyltransferase 1; test: biochemical
Description: Inhibition of N-terminal His6-tagged human recombinant DGAT1 expressed in insect cell membrane using [1-14C]decanoyl-CoA substrate by phospholipid flash plate assay

Canis familiaris [23] = species: Canis familiaris; test: Toxicity in dog assessed as incidence of hemodynamic effect measured at highest compound concentration; type: organism-based, Canis lupus familiaris; settings: in vivo
[24] = target: Voltage-gated inwardly rectifying potassium channel KCNH2 (Homo sapiens, UniProt Q12809); test: Inhibition of human ERG by manual patch clamp assay
[25] = AUC in rat at 5 mg/kg, po administered as single dose; type: ADME, organism-based; parameters: dose 5 mg/kg, route oral; settings: plasma
[26] = Cmax in rat at 5 mg/kg, po administered as single dose; type: ADME, organism-based; parameters: dose 5 mg/kg, route oral; settings: in vivo
Mus musculus [27] = test: Reduction in serum triglyceride level in CD1 mouse postprandial hyperlipidemia model at 0.03 mg/kg, po administered as single dose 1 hr before oral corn oil bolus challenge and measured after 2 hrs; type: functional; parameters: scale not given: the % may be the effect or the level left
[28] = Cmax in rat; type: ADME, organism-based; settings: plasma
Rattus norvegicus [29] = species: Rattus norvegicus; test: Toxicity in rat assessed as changes in gastrointestinal transit measured at highest compound concentration; type: organism-based; settings: in vivo
[30] = Stability in mouse liver microsomes assessed as parent compound remaining measured after 60 mins; type: ADME, Microsome; settings: read-out: Stability
[31] = Permeability in human Caco2 cells at 0.5 uM at pH 7.4; type: ADME, cell-based; settings: Caco-2, pH 7.4, read-out: permeability
[32] = Cmax in dog; type: ADME, organism-based, Canis lupus familiaris; settings: plasma
Canis familiaris [33] = test: AUC in dog dosed orally for 2 weeks assessed as terminal exposure; settings: in vivo, po, 336 h
[34] = Plasma clearance in mouse at 10 mg/kg, iv administered as single dose; type: ADME, organism-based; parameters: dose 10 mg/kg, route intravenous
Mus musculus [35] = test: Reduction in serum triglyceride level in CD1 mouse postprandial hyperlipidemia model administered orally as single dose 1 hr before oral corn oil bolus challenge and measured after 2 hrs; type: functional, organism-based
[36] = Oral bioavailability in mouse at 10 mg/kg administered as single dose; type: ADME, organism-based; settings: in vivo
[37] = Toxicity in dog Purkinje fibers assessed as prolongation of APD90 by Purkinje fibers repolarization assay; type: tissue-based, Canis lupus familiaris, Purkinje fiber; settings: in vitro
[38] = Terminal half life in mouse at 10 mg/kg, iv administered as single dose; type: ADME, organism-based; parameters: dose 10 mg/kg, route intravenous; settings: in vivo, read-out: beta t1/2 (converted)
[39] = Plasma concentration in CD1 mouse postprandial hyperlipidemia model at 0.3 mg/kg, po administered as single dose 1 hr before oral corn oil bolus challenge and measured after 2 hrs; type: ADME, organism-based; parameters: dose 0.3 mg/kg, route oral
[40] = Efflux ratio in human Caco2 cells at 5 uM at pH 7.4; type: ADME, cell-based; settings: Caco-2, pH 7.4
[41] = Volume of distribution at steady state in mouse at 10 mg/kg, iv administered as single dose; type: ADME, organism-based; parameters: dose 10 mg/kg, route intravenous; settings: in vivo, read-out: Vdss

Chain of Voltage-gated inwardly rectifying potassium channel KCNH2 (Q12809 whole entry): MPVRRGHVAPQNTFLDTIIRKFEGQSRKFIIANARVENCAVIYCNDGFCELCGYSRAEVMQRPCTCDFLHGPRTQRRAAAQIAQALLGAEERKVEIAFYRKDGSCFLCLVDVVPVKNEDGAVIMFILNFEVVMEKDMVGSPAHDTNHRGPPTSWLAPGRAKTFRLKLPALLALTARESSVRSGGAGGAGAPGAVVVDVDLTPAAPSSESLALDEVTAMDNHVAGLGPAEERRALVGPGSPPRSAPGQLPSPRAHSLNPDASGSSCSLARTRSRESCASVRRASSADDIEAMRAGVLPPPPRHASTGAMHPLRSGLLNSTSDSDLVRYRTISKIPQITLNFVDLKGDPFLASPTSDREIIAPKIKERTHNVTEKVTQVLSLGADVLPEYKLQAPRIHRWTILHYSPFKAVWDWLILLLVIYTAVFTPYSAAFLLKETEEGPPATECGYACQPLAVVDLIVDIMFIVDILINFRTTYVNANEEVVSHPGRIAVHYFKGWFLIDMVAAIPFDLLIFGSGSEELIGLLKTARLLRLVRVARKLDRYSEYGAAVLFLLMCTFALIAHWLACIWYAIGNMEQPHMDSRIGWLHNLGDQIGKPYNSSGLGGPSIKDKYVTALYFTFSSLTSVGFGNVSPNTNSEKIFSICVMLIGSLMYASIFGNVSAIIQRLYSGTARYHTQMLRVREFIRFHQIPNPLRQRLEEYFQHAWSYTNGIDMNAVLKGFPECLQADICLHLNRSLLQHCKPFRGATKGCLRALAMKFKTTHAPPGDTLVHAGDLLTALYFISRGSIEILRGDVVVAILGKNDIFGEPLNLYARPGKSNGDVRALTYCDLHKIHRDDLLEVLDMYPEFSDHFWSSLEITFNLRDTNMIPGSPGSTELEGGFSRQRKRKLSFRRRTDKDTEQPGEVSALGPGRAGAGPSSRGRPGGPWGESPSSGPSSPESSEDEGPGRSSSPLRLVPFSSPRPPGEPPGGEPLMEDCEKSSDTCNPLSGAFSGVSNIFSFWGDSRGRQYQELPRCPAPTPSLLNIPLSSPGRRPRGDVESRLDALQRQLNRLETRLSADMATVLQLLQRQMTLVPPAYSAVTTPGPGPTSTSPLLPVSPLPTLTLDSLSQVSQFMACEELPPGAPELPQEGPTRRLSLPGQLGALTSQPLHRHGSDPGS

remaining at 1 h [1]: < 5%
Structure (SMILES): CC(C)c1ccc(-c2cnc3ccnn3c2N)cc1

remaining at 1 h [1]: 100% | IC50 [22]: > 10 µM
Structure (SMILES): Nc1c(-c2ccc(C(=O)O)cc2)cnc2ccnn12

remaining at 1 h [1]: 91% | IC50 [22]: > 10 µM
Structure (SMILES): CS(=O)(=O)c1ccc(-c2cnc3ccnn3c2N)cc1

remaining at 1 h [1]: < 5%
Structure (SMILES): Nc1c(-c2ccc(Br)cc2)cnc2ccnn12

Second part, the compound before the results:

Structure (SMILES): Nc1c(-c2ccc([C@H]3CC[C@H](CC(=O)O)CC3)cc2)cnc2ccnn12
efflux ratio at 0.5 µM [2]: 1.4 | half-life [3]: 5.6 h | AUC (Rattus norvegicus [4]): 3455 µg·h/mL | AUC [5]: 151 µg·h/mL | clearance [6]: 0.833 mL/min/kg | concentration at 2 h [7]: 3100 ng/mL | Activity (Mustela putorius furo): Non-toxic | Vd [8]: 0.3 L/kg | IC50 [9]: 0.008 µM | half-life [10]: 5.1 h | IC50 [11]: 0.078 µM | IC50 [12]: > 10 µM | Activity (Mus musculus [13]): 90% | concentration at 2 h [14]: 33 ng/mL | remaining at 1 h [1]: 97% | bioavailability [15]: 91% | Cmax [16]: 17400 ng/mL | half-life [17]: 3.8 h | Activity (Canis familiaris [18]): Non-toxic | Activity (Rattus norvegicus [19]): Non-toxic | Activity (Mus musculus [20]): Active | Activity (Mus musculus [21]): 60% | IC50 [22]: 0.008 µM | Activity (Canis familiaris [23]): Non-toxic | IC50 [24]: > 300 µM | AUC [25]: 130 µg·h/mL | Cmax [26]: 9300 ng/mL | Activity (Mus musculus [27]): 40% | Cmax [28]: 30200 ng/mL | Activity (Rattus norvegicus [29]): Non-toxic | remaining at 1 h [30]: 99% | Papp at 0.5 µM [31]: 84 ×10⁻⁶ cm/s | Cmax [32]: 20500 ng/mL | AUC (Canis familiaris [33]): 789 µg·h/mL | clearance [34]: 1.67 mL/min/kg | Activity (Mus musculus [35]): Dose-dependent effect | bioavailability [36]: 78% | Activity [37]: Non-toxic | half-life [38]: 4.6 h | concentration at 2 h [39]: 360 ng/mL | efflux ratio at 5 µM [40]: 1.1 | Vd [41]: 0.3 L/kg

Structure (SMILES): Nc1c(-c2cccc(Br)c2)cnc2ccnn12
remaining at 1 h [1]: < 5% | IC50 [22]: > 10 µM

Structure (SMILES): CC(C)(C)c1ccc(-c2cncnc2N)cc1
remaining at 1 h [1]: 73%

Structure (SMILES): Nc1c(-c2ccccc2Br)cnc2ccnn12
remaining at 1 h [1]: 69% | IC50 [22]: > 10 µM

Structure (SMILES): CC(C)(C)c1ccc(-c2cnc3ccnn3c2N)cc1
remaining at 1 h [1]: 16%

Structure (SMILES): Nc1c(-c2ccccc2)cnc2ccnn12
IC50 [22]: > 10 µM
